IC50 data for 103 molecules are collected here from PubChem BioAssay AID2401 (Southern Research Specialized Biocontainment Screening …, 2010).

The IC50 is the point on the concentration scale where inhibition reaches its midpoint.

The test system of the assay is S. Typhimurium GFP reporter counter-screen, fluorescence, 4 h. The experiment in a line: nmpC-GFP reporter counter-screen in S. Typhimurium, dose response, counter-screen for PhoP regulon inhibitor project, Salmonella Typhimurium, GFP fluorescence (AID 2401).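 Note: S. typhimurium with Mg-insensitive nmpC-GFP reporter grown at 10 µM Mg2+; drop in reporter fluorescence reflects general culture growth inhibition.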 Background: A counterscreen serves to expose hits that act by an unwanted route or on another target.
Regarding `Oc1c(Br)cc(Br)cc1C=NCc1ccccc1`, the IC50 is 99.2 µM.
For the molecule `CCCCCCCSc1cc(OC)c(CCNC)cc1OC`, the half-maximal inhibitory concentration (IC50) was 39.4 µM.
For `O=c1[nH]c2ccccc2n2c(=S)[nH]nc12`, the IC50 was 37.5 µM.
In the case of `COc1c(F)c(F)cc2c(=O)c(C(=O)O)cn(C3CC3)c12`, the IC50 is 85.6 µM.
On to `CCCCOc1ccc(Cc2cnc(N)nc2N)cc1`, for which the IC50 was 38.2 µM.
As for `Clc1ccc(OCCCNCc2ccccc2)c(Br)c1`, the IC50 is 46.4 µM.
With `CCCCCCCCn1c2c(c(=N)c3c1CCC3)CCCC2` the figure was 70.9 µM; with `CCn1c(N)[n+](CC(=O)Nc2ccc(SC(F)F)cc2)c2ccccc21`, 132 µM; with `CCCCOc1ccc(Br)cc1CSC(=N)N`, 75.5 µM.
As to `O=C(CN1CCCC1)N/N=C/c1c(O)ccc2ccccc12`, the half-inhibitory concentration (IC50) is 29.9 µM.
Next, `Oc1ccc(CNc2ccccc2F)c2cccnc12`: 45.7 µM; `COc1c(N2CCNC(C)C2)c(F)cc2c(=O)c(C(=O)O)cn(C3CC3)c12` (stereo not drawn): 1.05 µM; `CC(C)NC1=C(Cl)C(=O)c2ccccc2C1=O`: 38.3 µM.
With `Fc1ccc(Nc2nc(NCc3ccco3)c3ccccc3n2)cc1` the figure was 28.2 µM; with `CC1CCC(C(C)C)C(OC(=O)Cn2c(COc3ccccc3)[n+](C)c3ccccc32)C1` (stereo not drawn), 40.4 µM.
Next, `Clc1cc(Br)ccc1OCCCNCc1ccccc1`: 75.6 µM.
On to `CC(C)CCNCC(O)CON=C1c2ccccc2-c2ccccc21` (stereo not drawn), for which the IC50 was 126 µM.
Next, `O=C(N/N=C/c1cc(Cl)ccc1O)c1ccncc1`: 20.6 µM; `Cc1nc(N)c(Cc2ccc(Cl)cc2Cl)c(N)n1`: 40.6 µM.
As to `Fc1ccc(CCNCc2ccc(Cl)c(Cl)c2)cc1`, the IC50 was 80.6 µM.
With `CC(=O)NC(c1ccc(Cl)cc1Cl)c1ccc2cccnc2c1O` (stereo not drawn), the IC50 is 48.8 µM.
As to `CCCCCCCCCn1c2c(c(=N)c3c1CCC3)CCCC2`, the IC50 was 31.3 µM.
In the case of `FC(F)(F)c1ccc2c(c1)N(CCCN1CCN(CCCl)CC1)c1ccccc1S2`, the IC50 was 110 µM.
Consider `C/C(=C\C(=O)OCCCCCCCCC(=O)O)C[C@@H]1OC[C@H](C[C@@H]2O[C@H]2[C@@H](C)[C@H](C)O)[C@@H](O)[C@H]1O`, for which the IC50 is 9.67 µM.
For `Cc1ccc(-c2csc(N=C(N)N)n2)cc1`, the half-inhibitory concentration (IC50) is 109 µM.
On to `Nc1[nH]c(=O)ncc1F`, for which the IC50 is 92.7 µM.
On to `CCCCCCCCCC[n+]1cccc2c3ccccc3ccc21`, for which the IC50 is 23.4 µM.
Next, `CCCCCCCCCCCCCCCC[n+]1cccc2ccccc21`: 19.1 µM; `CN(C)C1C(=O)C(C(N)=O)=C(O)C2(O)C(=O)C3=C(O)c4c(O)cccc4C(C)(O)C3CC12` (stereo not drawn): 1.01 µM; `CCCCCCCNC(=O)C1(CC2CC(c3ccc(Cl)cc3)=NO2)CCNCC1` (stereo not drawn): 42.5 µM.
Take `Fc1ccccc1CCNCc1ccccc1`: the IC50 is 36.2 µM.
With `CN1CCN(c2cc3c(cc2F)c(=O)c(C(=O)O)cn3CCF)CC1` the figure was 0.93 µM; with `COc1ccc(C(C[N+](=O)[O-])c2c(-c3ccccc3)cc3ccccn23)cc1` (stereo not drawn), 29.9 µM.
With `Nc1ccc2c(c1)C(=O)C(=O)c1ccccc1-2` the figure was 11 µM.
`CC1(C)CC(=O)C(C(=O)/C=C/NCCc2ccccc2)C(=O)C1`: the IC50 is 122 µM.
As to `Cc1ccccc1Nc1cc(C)c2c(O)cccc2n1`, the IC50 was 41.2 µM.
For the molecule `Cc1cc(/C=N/n2c(COc3ccccc3C)nc3ccccc3c2=O)c(O)c([N+](=O)[O-])c1`, the IC50 is 70.4 µM.
As to `CCN1CCN(C(c2cccnc2)c2cc(Cl)c3cccnc3c2O)CC1` (stereo not drawn), the IC50 was 36 µM.
Take `CC(=O)NC(c1cccs1)c1cc([N+](=O)[O-])c2cccnc2c1O` (stereo not drawn): the IC50 was 30.8 µM.
With `Oc1c(CN2CCN(c3ccc(F)cc3)CC2)cc(Cl)c2cccnc12` the figure was 19.8 µM; with `O=[N+]([O-])c1cc(O)c2ncccc2c1`, 16.8 µM.
For the molecule `CCn1cc(C(=O)NCCCO)c(=O)c2cc(F)c(N3CCN(C)CC3)cc21`, the IC50 is 46.8 µM.
With `C=C1c2c(Cl)ccc(O)c2C(O)=C2C(=O)[C@]3(O)C(O)=C(C(N)=O)C(=O)[C@@H](N(C)C)[C@@H]3[C@@H](O)C12` (stereo partly drawn) the figure was 1.28 µM.
With `CN1CCN(c2c(F)cc3c(=O)c(C(=O)O)cn4c3c2OCN4C)CC1`, the IC50 is 0.61 µM.
On to `CCNC(=S)NNC(=O)c1ccccn1`, for which the IC50 is 36.4 µM.
For `CCCC(=O)NC(c1ccccc1)c1ccc2cccnc2c1O` (stereo not drawn), the IC50 is 40 µM.
With `C[C@H]1c2cccc(O)c2C(O)=C2C(=O)[C@]3(O)C(O)=C(C(N)=O)C(=O)[C@@H](N(C)C)C3[C@@H](O)C21` (stereo partly drawn) the figure was 2.3 µM; with `O=C(c1ccccc1)c1c2c(cc3sc4ccccc4[n+]13)-c1cccc3cccc-2c13`, 82.2 µM.
In the case of `CCC(C)NC(=O)c1cn(CC)c2cc(N3CCN(C)CC3)c(F)cc2c1=O` (stereo not drawn), the IC50 is 70.6 µM.
With `Cc1cccc(Nc2nc(NCc3ccco3)c3ccccc3n2)c1` the figure was 54.6 µM.
In the case of `CCN(CC)CCOc1ccc2c(c1)C(=NNC(=O)c1ccccn1)c1cc(OCCN(CC)CC)ccc1-2`, the IC50 was 38.1 µM.
With `O=C(N/N=C/c1ccc(Sc2ccccn2)o1)c1cc2ccccc2cc1O` the figure was 107 µM; with `CCc1ccc(NC(=O)C[n+]2cc(-c3ccc(C)cc3)n3c2CCC3)cc1`, 85.9 µM.
`CCCCCCCCNC(C)C(O)c1ccc(SC(C)C)cc1` (stereo not drawn): the IC50 is 75.3 µM.
Turning to `Cc1cc(C(=O)N/N=C/c2ccc([N+](=O)[O-])s2)n[nH]1`, the IC50 was 35 µM.
In the case of `O=C(O)C1Nc2c(O)cccc2C2C=CCC12` (stereo not drawn), the IC50 is 86.9 µM.
Regarding `O=C(NC(CO)C(O)c1ccc([N+](=O)[O-])cc1)C(Cl)Cl` (stereo not drawn), the IC50 was 10.1 µM.
Next, `C=C1c2cccc(O)c2C(O)=C2C(=O)[C@]3(O)C(O)=C(C(N)=O)C(=O)[C@@H](N(C)C)[C@@H]3[C@@H](O)[C@H]12`: 0.67 µM.
Take `CN(C)S(=O)(=O)c1cccc(NC(=S)N/N=C/c2cc(Br)ccc2O)c1`: the IC50 is 32.4 µM.
For the molecule `N=c1n(CC(=O)c2ccc(Br)s2)c2ccccc2n1Cc1ccccc1`, the concentration for half-maximal inhibition (IC50) is 40.4 µM.
With `CCCCCCCCCC[N+](C)(C)CC/C=C1/c2ccccc2Sc2ccc(Cl)cc21`, the IC50 was 18.9 µM.
For the molecule `Cc1ccnc(NC(c2cccnc2)c2ccc3cccnc3c2O)c1` (stereo not drawn), the IC50 is 22.3 µM.
Next, `COc1cc(/C=C/[N+](=O)[O-])ccc1O`: 32.6 µM.
Regarding `CSc1ccc2c(c1)C(N1CCN(C)CC1)Cc1ccccc1S2` (stereo not drawn), the IC50 was 87.2 µM.
As for `S=c1nc(C2CCCCC2)[nH][nH]1`, the IC50 is 99 µM.
Regarding `CN(C)c1ccc(/C=C/c2ccc3ccccc3[n+]2C)cc1`, the IC50 is 19.8 µM.
With `Nc1ccc2nc(-c3cc(Cl)c(N)c(Cl)c3)[nH]c2c1`, the IC50 is 80.7 µM.
On to `CCn1cc(C(=O)O)c(=O)c2cc(F)c(N3CCN(C(=S)NC(=O)c4cccc(C)c4)CC3)cc21`, for which the IC50 was 34.7 µM.
With `O=C(c1cccs1)c1no[n+]([O-])c1C(=O)c1cccs1` the figure was 39.1 µM; with `CN(C)CCCNc1cc(C(C)(C)C)nc2c(-c3ccccc3)cnn12`, 53.6 µM.
Consider `Nc1nc2ccccc2n1CCOc1ccccc1Cl`, for which the IC50 was 71.8 µM.
With `CC1CCC(C(C)C)C(OC(=O)Cn2c(-c3ccc(Cl)cc3)[n+](C)c3ccccc32)C1` (stereo not drawn) the figure was 82.9 µM; with `O=CN/N=C/c1c(O)ccc2ccccc12`, 37.2 µM; with `CCCCCCCCCCCCCCCCn1cc[n+](CC(C)=O)c1`, 33.9 µM.
In the case of `O=C(Nc1nc(-c2ccccn2)cs1)c1ccc(Cl)s1`, the IC50 was 28.6 µM.
As to `CC1COc2c(N3CCN(C)CC3)c(F)cc3c(=O)c(C(=O)O)cn1c23` (stereo not drawn), the IC50 was 0.8 µM.
On to `C/C(=N\Nc1ncnc2sc(C)c(C)c12)c1ccccn1`, for which the IC50 was 26.4 µM.
Take `Cc1ccc(S(=O)(=O)NC2=NCN(CCOC(=O)c3ccc([N+](=O)[O-])cc3)CN2)cc1`: the IC50 was 145 µM.
Take `CCCCCCCNC(=O)C1(CC2CC(c3cccc(Br)c3)=NO2)CCNCC1` (stereo not drawn): the IC50 was 37.7 µM.
With `CCCCC(CC)CN=C(N)NC(N)=NCCCCCCN=C(N)NC(N)=NCC(CC)CCCC` (stereo not drawn) the figure was 5.51 µM; with `O=[N+]([O-])c1ccc(CNC2CCCc3ccccc32)cc1` (stereo not drawn), 97.4 µM; with `O=c1c2c(-c3ccccc3)csc2nc2c3ccccc3c(NCCN3CCOCC3)nn12`, 147 µM.
Regarding `O=S1(=O)CCC(NC(=S)SCCOc2ccccc2)C1` (stereo not drawn), the IC50 is 64.8 µM.
`Oc1ccc(CN2CCCc3ccccc32)c2cccnc12`: the IC50 is 28.5 µM.
With `CC(C)(C)CC(C)(C)c1ccc(OCCOCC[N+](C)(C)Cc2ccccc2)cc1` the figure was 32.8 µM; with `OC(c1cc(-c2ccc(C(F)(F)F)cc2)nc(C(F)(F)F)c1)C1CCCCN1` (stereo not drawn), 29.5 µM; with `CCCCN(CCCC)C(=O)c1cn(CC)c2cc(N3CCN(C)CC3)c(F)cc2c1=O`, 21.9 µM.
With `ON=C1/C(=N\O)CC2(C/C1=N/O)OCCO2`, the IC50 was 98.3 µM.
On to `O=C1C(SCCO)=C(SCCO)C(=O)c2ccccc21`, for which the IC50 was 68 µM.
With `Nc1cccc2nc3ccccc3cc12` the figure was 26.7 µM; with `CCCCCCCCCCOC(=O)Cn1c(COc2ccccc2OC)[n+](C)c2ccccc21`, 21.4 µM; with `Cc1ccc(-c2csc(NC(=O)C[n+]3cc(-c4ccc(C)cc4)n4c3CCC4)n2)cc1`, 38.4 µM.
Next, `CCCCCNCC(=O)Nc1cccc(C(=O)Nc2cccc(C(F)(F)F)c2)c1`: 83.2 µM; `O=C(Cc1c[nH]c2ccccc12)N/N=C/c1ccccc1O`: 89.3 µM.
`Cc1ccc(C(c2cc(Cl)c3cccnc3c2O)N2CCN(C)CC2)cc1` (stereo not drawn): the IC50 is 33.5 µM.
Consider `CCCNC(=O)c1cn(CC)c2cc(N3CCN(C)CC3)c(F)cc2c1=O`, for which the IC50 is 48.2 µM.
`O=[N+]([O-])c1ccc(Sc2nc3ccccc3o2)c([N+](=O)[O-])c1`: the IC50 was 103 µM.
In the case of `O=[N+]([O-])c1cc(Cl)c(O)c2ncccc12`, the IC50 is 5 µM.
Regarding `Cc1ccc(-c2csc(N=C(N)N)n2)c(C)c1`, the IC50 is 57.2 µM.
Next, `CCCC(=O)NC(c1ccc(N(C)C)cc1)c1ccc2cccnc2c1O` (stereo not drawn): 107 µM; `CCCCCCCCCCCCCCCCn1cc[n+](C)c1`: 16.3 µM.
With `CNc1nc(NCc2ccccc2)c2ccccc2n1`, the IC50 was 79.3 µM.
In the case of `CCCCCc1ccc(OCCC[n+]2ccccc2)c(CCCCC)c1`, the IC50 is 70.1 µM.
